# Measurements: patent publication US20230102836A1, “Amoebicidal Compositions for Contact Lens Solutions” (University of the West of Scotland, priority 2019, published 2023)
# Where “and” joins values, the source holds several entries; their conditions need not be identical. Equal entries are not always repeated. Where two headings read alike, the source gives them in different places.
# What was measured:
# A. castellanii cysts [1] = test: Drug wash-out / alamarBlue-reversion assay, cysts; assay type: cell-based, Acanthamoeba castellanii ATCC 50370; conditions: for Back transformation to trophozoites after drug wash-out: Cysts; for Back transformation to trophozoites after drug wash-out: key: +: indicates cells reverting back to trophozoites after washout; and capable of oxidizing reduced alamarBlue from blue to pink after 8 days; −: indicates cell that did not revert to trophozoites after wash-out and unable to oxidise reduced alamarBlue solution
# Description: For the drug kinetic assay, viability was assessed by the linked alamarBlue-reversion assay. Drug-treated cysts were washed with PBS and fresh PG medium was added to allow reversion to trophozoites for 5 days, after which, alamar blue was added and viability estimated as described above.
# The cysticidal activity of QAC16 to QAC18 strongly correlated with (a) the alkyl-carbon chain lengths (Table 2) and the duration of drug contact (FIG. 8H). Like trophozoites, death was via leakage judged by 40% and 50% increase in DNA and proteins in the external milieu after 1 h (FIGS. 9A and 9B). To investigate if the cyst were viable, a complementary viability assay that involved, drug washout, incubation in PG medium to allow reversion of viable cyst to trophozoite for 7 days, and estimation of viability using the oxidation of resazurin after 6 h.
# [2] = test system: Acanthamoeba trophozoites; test: Checkerboard dilution QAC-APC interaction (Bliss model); assay type: cell-based, Acanthamoeba castellanii; conditions: APC12, APC14, APC16; 96 h at 25° C.
# Description: Acanthamoeba trophozoites (10^5 cells/ml. n=5/treatment) treated with 100 μg/ml doubly diluted to 0.06 μg/ml of QAC12 (FIG. 7A), […], QAC16 (FIG. 7C) and QAC18 (FIG. 7D) with APC 12 (i), APCI 4 (ii) and APC16 (iii) for 96 h at 25° C. Cell viability estimated by the alamarBlue assay the dose-response curves used to produce a surface analysis (right panel) and the interaction profile determined using the Bliss model. The degree of interaction characterised by the QCScore heuristic score are produced as heat map (left panel). The colour of each cell in the heatmap and the surface analysis represents the assay response at that dose combination; red to orange, antagonistic: yellow to green, additive and blue, synergistic.
# The change in potency between QAC and APC prompted us to used the checkerboard dilution method to identify synergistic interactions (FIG. 7A-D). Three interaction profiles, antagonistic (orange to red), additive (yellow to green) and synergistic (blue) were observed, with optimal synergistic interactions deemed to be significant occurring between 20-38%; (FIG. 7).
# A. castellanii cysts [3] = test: Cytotoxicity assay on cysts (trypan blue); assay type: cell-based, Acanthamoeba castellanii ATCC 50370; conditions: Acanthamoeba castellanii
# Description: Acanthamoeba castellanii ATCC 50370 trophozoites and cysts were cultured in Peptone Glucose (PG) medium and encystment medium (Chagla A H, Griffiths A J (1974) Microbiology: 85(1): 139-145) respectively at 25° C. Cysts were prepared by incubating trophozoites for 8 days in encystment medium and integrity validated with calcofluor (0.25 μg/ml) assay (Gatti S et al (2010) J. Med. Microbiol.; 59: 1324-1330) or sodium dodecyl sulfate (SDS, 0.5% w/v) disintegration assay (Dudley R et al (2005) Acta Trop.; 9: 100-8) and microscopic observation.
# The compounds used in this study all contained alkyl-carbon chains: three APCs [dodecyl-PC (APC12), tetradecyl-PC. (APC14) and hexadecyl-PC (APC16)] (Anatrace) and four QACs [docdecyl-TMAB (QAC12), tetradecyl-TMAB (QAC14), hexadecyl-TMAB (QAC16) and octadecyl-TMAB (QAC18)](Sigma). All were prepared to a stock concentration of 1 mg/ml and diluted as required by the experimental protocol in the cytotoxicity assays. A. castellanii trophozoites and cysts (at 10^5 cells/ml) with or without APCs or QACs (concentrations ranging from […] doubly diluted to 0.04 μg/ml to a final volume of 100 μl) in a 96-well plate were incubated at 25° C. for a duration determined by the experimental protocol.
# For the combined assay, similar concentrations of QAC18 and APC16 were prepared and 18.75 μg/ml and 37.5 μg/ml of QAC12 added (to a final volume of 100 μl) were added to 10^5 cells/mi in a 96-well plate and later incubated at 25° C. for a duration determined by the experimental protocol. Resazurin (7-Hydroxy-31-phenoxazin-3-one 10-oxide; 5 mg/ml; McBride J et al (2005) J. Clin. Microbiol.; 43: 629-634) and trypan blue (0.4 μg/ml; Mafra C S P et al (2013) Investig. Ophthalmol. Vis. Si.; 54: 6363-6372) were then added to trophozoites and cysts respectively after being exposed to the compounds and the cell viability estimated microscopically and from changes in absorbance (at 595 nm and 570 nm) respectively.
# Efficacy was expressed as a percentage of untreated controls for each drug concentration used and the data used to calculate the IC50. Cell density was estimated using the modified Neubaur hemocytometer and expressed as cells/ml.
# A. castellanii cysts [4] = test: Extrusion of cytoplasmic constituents (DNA, protein) from cysts; assay type: cell-based, Acanthamoeba castellanii ATCC 50370
# From the text: FIGS. 9A-9B show the extrusion of cytoplasmic constituents of A. castellani cysts to the external milieu after QAC treatment. DNA (FIG. 9A) and Protein (FIG. […] 9A) and at 280 nm (FIG. 9B) respectively. Data is mean absorbance at 260 nm (FIG. 9A) and 280 nm (FIG. 9B)±SD respectively: n=4 independent experiments performed in triplicates.
# Protein concentration in cell extract and media of QAC-treated and untreated A. castellanii trophozoites was estimated at 280 nm using the Nanodrop® ND-1000 and expressed as ng/μl protein. DNA concentrations were estimated similarly at 260 nm and expressed as ng/μl.
# [5] = test system: A. castellanii trophozoites; test: Drug wash-out / alamarBlue-reversion assay, trophozoites; assay type: cell-based, Acanthamoeba castellanii ATCC 50370
compound,measurement,setting,value
"CCCCCCCCCCCCCCCCCC[N+](C)(C)C.[Br-] [QAC18, octadecyltrimethyl ammonium bromide]",Resurgence of cysts after drug washout,A. castellanii cysts [1]; 18.75 μg/ml after 48 h,No resurgence
same,Resurgence of cysts after drug washout,A. castellanii cysts [1]; 37.5 μg/ml after 24 h,No resurgence
same,Back transformation to trophozoites after drug wash-out,"A. castellanii cysts [1]; 9.375 μg/ml, 24 h",+
same,Back transformation to trophozoites after drug wash-out,"A. castellanii cysts [1]; 9.375 μg/ml, 48 h",+
same,Back transformation to trophozoites after drug wash-out,"A. castellanii cysts [1]; 9.375 μg/ml, 72 h",+
same,Back transformation to trophozoites after drug wash-out,"A. castellanii cysts [1]; 18.75 μg/ml, 24 h",+
same,Back transformation to trophozoites after drug wash-out,"A. castellanii cysts [1]; 18.75 μg/ml, 48 h",+
same,Back transformation to trophozoites after drug wash-out,"A. castellanii cysts [1]; 18.75 μg/ml, 72 h",+
same,Back transformation to trophozoites after drug wash-out,"A. castellanii cysts [1]; 37.50 μg/ml, 24 h",−
same,Back transformation to trophozoites after drug wash-out,"A. castellanii cysts [1]; 37.50 μg/ml, 48 h",−
same,Back transformation to trophozoites after drug wash-out,"A. castellanii cysts [1]; 37.50 μg/ml, 72 h",−
same,Interaction profile of QAC combined with APCs,[2],No significant synergy
same,IC50,"A. castellanii cysts [3]; Table 2, read-out: IC50 A. castellanii cysts",15 µg/mL and 38 µM
same,IC50,"A. castellanii cysts [3]; after 96 h, trypan blue viability assay, read-out: Estimated IC50 against matured cysts",22 ± 0.04 µg/mL
same,Increase in DNA in the external milieu of cysts,A. castellanii cysts [4]; after 1 h (FIG. 9A),40%
same,Increase in proteins in the external milieu of cysts,A. castellanii cysts [4]; after 1 h (FIG. 9B),50%
same,Back transformation to trophozoites after drug wash-out,"[5]; 9.375 μg/ml, 1 h",+
same,Back transformation to trophozoites after drug wash-out,"[5]; 9.375 μg/ml, 24 h",−
same,Back transformation to trophozoites after drug wash-out,"[5]; 9.375 μg/ml, 48 h",−
same,Back transformation to trophozoites after drug wash-out,"[5]; 9.375 μg/ml, 72 h",−
same,Back transformation to trophozoites after drug wash-out,"[5]; 9.375 μg/ml, 96 h",−
same,Back transformation to trophozoites after drug wash-out,"[5]; 18.75 μg/ml, 1 h",+
same,Back transformation to trophozoites after drug wash-out,"[5]; 18.75 μg/ml, 24 h",−
same,Back transformation to trophozoites after drug wash-out,"[5]; 18.75 μg/ml, 48 h",−
same,Back transformation to trophozoites after drug wash-out,"[5]; 18.75 μg/ml, 72 h",−
same,Back transformation to trophozoites after drug wash-out,"[5]; 18.75 μg/ml, 96 h",−
same,Back transformation to trophozoites after drug wash-out,"[5]; 37.50 μg/ml, 1 h",−
same,Back transformation to trophozoites after drug wash-out,"[5]; 37.50 μg/ml, 24 h",−
same,Back transformation to trophozoites after drug wash-out,"[5]; 37.50 μg/ml, 48 h",−
same,Back transformation to trophozoites after drug wash-out,"[5]; 37.50 μg/ml, 72 h",−
same,Back transformation to trophozoites after drug wash-out,"[5]; 37.50 μg/ml, 96 h",−
same,Amoebotoxicity after wash-out and replacement with PG medium,[5]; after 24 h at 9.375 μg/ml,amoebotoxic
same,Amoebotoxicity after wash-out and replacement with PG medium,[5]; from 1 h onwards at 37.5 μg/ml,amoebotoxic
